According to article PMC12030062, “From In Vitro Cytotoxicity to In Vivo Zebrafish Assays: A Study on 3,3-Dichloro β-, γ- and δ-Lactams and Their Biological Activity Profiles” (Pharmaceuticals, 2025):

Tests used:
A431 cells = assay: AO/EB double staining, cellular death events; type: cell-based, human; conditions: A431, 24 h, 10-160 µg/mL
human erythrocytes = assay: Hemolysis assay with human erythrocytes; type: cell-based; conditions: from 10 to 80 µg/mL
Description: (§1) In this context, non-hemolytic compounds are essential, as they enhance the safety and efficacy of lactam-based drugs by reducing adverse effects while maintaining their antitumor activity. In accordance with EU regulations (ISO 10993-4), the assessment of the biological compatibility of new compounds that may come into contact with the blood necessitates in vitro hemocompatibility evaluations. In this study, the extent of hemolysis induced by the different compounds was assessed by incubating them with an erythrocyte suspension. The hemolytic response of compounds 1–10 was evaluated at two concentrations (10 and 80 µg/mL), the results of which are presented in Figure 3.
(§2) • In Vitro Assay Using Human Erythrocytes • - Acquisition and Extraction of the Erythrocytes Human blood samples were obtained from the Banc de Sang i Teixits de Barcelona (Spain) from the Catalan Department of Health. Blood was deposited in tubes with the anticoagulant EDTA-K3. Blood samples were centrifuged at 3000 rpm and 4 °C for 10 min (Megafuge 2.0 R. Heraeus Instruments, Hanau, Germany) to induce sedimentation. Plasma was extracted with a Pasteur pipette. Next, the residual pellet was washed with PBS at pH 7.4. This procedure was repeated three times to remove residual leukocytes and platelets and to concentrate the erythrocytes. Following the last wash, the erythrocyte suspension was diluted (1:1) in PBS at pH 7.4 to obtain a suitable erythrocyte suspension (cell density of 8 × 10^9 cell/mL). • - Hemolysis Assay The hemolysis assay determined the capability of different compounds to induce the hemolysis of the erythrocyte membrane. Stock solutions of each compound at 1 mg/mL in PBS at pH 7.4 were prepared. Different volumes (10–80 μL) were placed in polystyrene tubes, and an aliquot of 25 µL of the erythrocyte suspensions was added to each tube. The final volume was 1 mL. The tubes were incubated at room temperature under rotatory conditions. Then, the tubes were centrifuged at 10,000 rpm for 5 min. The supernatants’ absorbance at 540 nm (Shimadzu UV-160A, Shimadzu, Duisburg, Germany) was compared with that of the positive (erythrocytes hemolyzed with distilled water) and negative (erythrocyte suspension in PBS at pH 7.4) controls. The degree of hemolysis was determined using the following equation: Hemolysis (%) = 100 × (Abs − Abs0)/(Abs100 − Abs0) where Abs, Abs0, and Abs100 are the absorbance of the test samples, of the suspension treated with isotonic phosphate–buffered saline (PBS), and of the suspension of complete hemolysis treated with distilled water, respectively. • In Vitro Essay Using Cell Cultures The murine Swiss albino fibroblasts (3T3) and the squamous cell carcinoma (A431) cell lines were obtained from Celltec UB. Cells were grown in DMEM medium (4.5 g/L glucose) supplemented with 10% (v/v) FBS, 2 mM L-glutamine, 100 U/mL penicillin, and 100 µg/mL streptomycin at 37 °C with 5% CO2. Cells were routinely cultured in 75 cm^2 culture flasks and were trypsinized using trypsin–EDTA when the cells reached approximately 80% confluence. The trypan blue assay, which allows for the direct identification and enumeration of the live (unstained) and dead (blue) cells in the cell population, was used to evaluate the viability of the cells in the cell suspension obtained. • - Cell Viability Assays Cell lines of 3T3 (1 × 10^5 cells/mL) and A431 (5 × 10^4 cells/mL) were grown at defined densities in the 60 central wells of a 96-well plate. The cells were incubated for 24 h in 5% CO2 at 37 °C. Then, the spent medium was removed, and the cells were incubated for 24 h, with their corresponding compound solutions (1 mg/mL) previously diluted in a minimum amount of DMF (dimethylformamide) and then in DMEM medium supplemented with 5% FBS (100 µL) at the required concentration range (80 or 250 µg/mL). […]

[1] = Hemolysis assay with human erythrocytes; type: cell-based; conditions: human, washed human erythrocyte suspension, pH 7.4; 10 µg/mL; read-out: degree of hemolysis
Description: as §1, §2

## CC(C)(C)N1C(=O)C(Cl)(Cl)C1c1ccccc1 (stereo not drawn) [Compound 1]
A431 cells
  mode of cell death: induces cell death primarily via apoptosis
Human erythrocytes
  change of hemolytic response as concentration increased: remained stable
[1]
  hemolysis at 10 µg/mL: 0.01%
